One series addresses Phosphodiesterase 4 (Homo sapiens, UniProt P27815+Q08499+Q07343+Q08493). The class given is functional, cell-based. The note with it: u-937.
Series [1] has as its target T1, Muscarinic acetylcholine receptor M3 (Homo sapiens, UniProt P20309). In words: biochemical. Type of series: cell-based, CHO.
Target sequence in this assay (P20309 whole entry): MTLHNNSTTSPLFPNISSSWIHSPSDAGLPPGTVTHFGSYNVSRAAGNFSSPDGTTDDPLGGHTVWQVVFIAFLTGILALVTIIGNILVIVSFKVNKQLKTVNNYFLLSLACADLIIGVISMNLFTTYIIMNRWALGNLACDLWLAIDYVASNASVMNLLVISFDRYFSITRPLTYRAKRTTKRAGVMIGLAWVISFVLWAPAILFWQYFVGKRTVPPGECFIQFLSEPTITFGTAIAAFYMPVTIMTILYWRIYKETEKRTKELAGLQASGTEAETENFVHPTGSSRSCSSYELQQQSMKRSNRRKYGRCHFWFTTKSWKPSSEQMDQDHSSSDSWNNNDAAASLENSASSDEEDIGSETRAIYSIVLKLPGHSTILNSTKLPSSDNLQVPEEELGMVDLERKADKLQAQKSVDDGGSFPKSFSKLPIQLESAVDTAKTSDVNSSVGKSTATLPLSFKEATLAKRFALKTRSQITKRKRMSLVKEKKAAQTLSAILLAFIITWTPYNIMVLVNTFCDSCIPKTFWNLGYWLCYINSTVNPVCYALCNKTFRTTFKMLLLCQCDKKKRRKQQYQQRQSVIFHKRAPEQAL
For series [2] the following is noted: buffer, pH 7.4.
Series [3] deals with T1, Muscarinic acetylcholine receptor M3. In words: Displacement of [3H]methylscopolamine from recombinant human muscarinic M3 receptors expressed in CHO cells at 10 um. Type of series: cell-based. For orientation: Loss of bound radioactivity is the signal in a displacement assay; it reports binding, not function.
Target sequence in this assay (P20309 whole entry, looked up): as the sequence (P20309 whole entry) above

The source of these data is ChEMBL document CHEMBL1146129, “First dual M3 antagonists-PDE4 inhibitors: synthesis and SAR of 4,6-diaminopyrimidine derivatives” (Bioorg Med Chem Lett, 2006).

The term IC50 denotes the concentration that inhibits the measured activity by half. As usually defined, the Ki is the equilibrium dissociation constant of an inhibitor or competing ligand from its target. A higher Ki goes with weaker binding. Broadly, the pKa is the negative logarithm of the acid dissociation constant. As usually defined, the inhibition is the share of the control response that was lost under treatment.

Description for Phosphodiesterase 4: Inhibition of PDE4 activity in U937 cells
Description for physchem: Dissociation constant, pKa of the compound

On to `Cc1c(NC2CC2)nc(CC2CC2)nc1N1CCCCCC1`, for which the IC50 against Phosphodiesterase 4 was determined as 2 µM. In series [1], the affinity corresponds to a Ki of 126 nM.
Taken in the same sequence, the figures for `Cc1c(NC2CCC2)nc(C2CC2)nc1N1CCCCCC1` were 2 µM and 7.9 nM.
As for `Cc1c(NCc2cccs2)nc(C2CC2)nc1NC1CC1`, at Phosphodiesterase 4, the IC50 is 6.3 µM. The compound further had a Ki in series [1] of 126 nM. This compound also yielded a LogK-IAMex in series [2] of 2.21.
As to `Cc1c(NC2CC2)nc(C2CCCC2)nc1N1CCCCCC1`, the concentration for half-maximal inhibition (IC50) at Phosphodiesterase 4 was 1.26 µM. Further, the inhibition constant (Ki) in series [1] is 79 nM.
In the same order, the values of `Cc1c(NC2CC2)nc(C(C)C)nc1N1CCCCCC1` are 2.5 µM and 25 nM.
For the compound `Cc1c(NC2CC2)nc(C2CC2)nc1N1CCC(F)(F)CC1`, the IC50 against Phosphodiesterase 4 is 0.4 µM. In series [1], this compound registered a Ki of 50 nM. This compound also registered a LogK-IAMex in series [2] of 2.5.
With `Cc1c(NC2CC2)nc(Cc2ccccc2)nc1N1CCCCCC1`, on Phosphodiesterase 4, the IC50 is 1 µM. The compound further showed a Ki in series [1] of 501 nM.
Regarding `Cc1c(NC2CC2)nc(C2CC2)nc1N1CCCCCCC1`, the IC50 on Phosphodiesterase 4 is 1.6 µM. Besides, in series [1], the affinity corresponds to a Ki of 16 nM. The compound also showed a LogK-IAMex in series [2] of 3.05.
In turn, `Cc1c(NC2CC2)nc(C2CC2)nc1N1CCCCC1` yielded an IC50 on Phosphodiesterase 4 of 0.5 µM. The compound also had an inhibition constant (Ki) in series [1] of 13 nM. Moreover, the LogK-IAMex in series [2] is on record as 2.5.
For the compound `Cc1c(NC2CC2)nc(C2CC2)nc1N1CCC(C(F)(F)F)CC1`, on Phosphodiesterase 4, the 50% inhibitory concentration (IC50) stood at 2 µM. Besides, the Ki in series [1] is 100 nM. This compound also showed a LogK-IAMex in series [2] of 2.94.
Taken in the same sequence, the figures for `Cc1c(NC2CC2)nc(C2CC2)nc1N1CCC(O)CC1` were 4 µM, 501 nM and 1.2.
Take `Cc1c(NC2CC2)nc(C2CCC2)nc1N1CCCCCC1`: the concentration for half-maximal inhibition (IC50) against Phosphodiesterase 4 amounted to 2 µM. Besides, the inhibition constant Ki in series [1] was found to be 40 nM.
As for `O=[N+]([O-])c1c(NC2CC2)nc(C2CC2)nc1N1CCCCCC1`, the half-maximal inhibitory concentration (IC50) at Phosphodiesterase 4 was 1.26 µM. This compound yielded a Ki in series [1] of 2510 nM. This compound also returned a pKa in the series “physchem” of 4.64.
In turn, `COc1c(NC2CC2)nc(C2CC2)nc1N1CCSCC1` displayed a 50% inhibitory concentration (IC50) at Phosphodiesterase 4 of 2.5 µM. The Ki in series [1] stood at 398 nM. In addition, in “physchem”, the pKa was found to be 6.47.
For the compound `Cc1c(NC2CC2)nc(C2CC2)nc1N1CCC(Cc2ccccc2)CC1`, the IC50 against Phosphodiesterase 4 is 2 µM. In series [1], this compound showed a Ki of 790 nM. In series [2], this compound registered a LogK-IAMex of 3.89.
As for `Cc1c(NC2CC2)nc(C2CC2)nc1N1CCOCC1`, the inhibition in series [3] is under 50%. The compound further registered an IC50 on Phosphodiesterase 4 of 0.79 µM. In addition, the LogK-IAMex in series [2] was 1.45.
The compound `Nc1c(NC2CC2)nc(C2CC2)nc1N1CCCCCC1` showed an IC50 against Phosphodiesterase 4 of 0.79 µM. In series [1], affinity was put at a Ki of 79 nM. This compound also had a pKa in “physchem” of 7.15.
In the same order, the values of `Fc1c(NC2CC2)nc(C2CC2)nc1N1CCCCCC1` are 0.63 µM, 251 nM and 6.44.
Taken in the same sequence, the figures for `CCc1c(NC2CC2)nc(C2CC2)nc1N1CCSCC1` were 1.6 µM, 100 nM and 6.78.
For `Cc1c(NCCc2cccs2)nc(C2CC2)nc1NC1CC1`, at Phosphodiesterase 4, the IC50 came to 2.5 µM. Besides, in series [1], the affinity corresponds to a Ki of 79 nM. Also, the LogK-IAMex in series [2] was 2.57.
In the same order, the values of `Cc1c(NC2CC2)nc(C2CC2)nc1N1CCC(=O)CC1` are 3.2 µM, 3200 nM and 1.35.
Taken in the same sequence, the figures for `Cc1c(NC2CC2)nc(C2CC2)nc1N1CCC(CO)CC1` were 0.63 µM, 501 nM and 1.57.
Taken in the same sequence, the figures for `Cc1c(NC2CC2)nc(C2CC2)nc1N1CC2CCC(C2)C1` were 0.5 µM, 6.3 nM and 3.11.
In turn, `C1CCCN(c2nc(C3CC3)nc3c2CCCCN3)CC1` came in with an IC50 at Phosphodiesterase 4 of 1.3 µM. In series [1], this compound yielded a Ki of 10 nM.
In the same order, the values of `Cc1c(NC2CC2)nc([C@@H]2C[C@H]2C)nc1N1CCCCCC1` are 3.2 µM and 32 nM.
`Cc1c(NC2CCCCCC2)nc(C2CC2)nc1NC1CC1` returned an IC50 against Phosphodiesterase 4 of 2 µM. This compound also showed a Ki in series [1] of 398 nM. The compound also displayed a LogK-IAMex in series [2] of 2.98.
Compound `Cc1c(NC2CC2)nc(C2CC2)nc1N1CCC2(CCCC2)CC1` had a concentration for half-maximal inhibition (IC50) on Phosphodiesterase 4 of 0.79 µM. Moreover, the inhibitory constant (Ki) in series [1] came out at 158 nM. Also, in series [2], the LogK-IAMex is 3.66.
Turning to `c1c(NC2CC2)nc(C2CC2)nc1N1CCCCCC1`, at Phosphodiesterase 4, the IC50 worked out at 0.4 µM. Further, the Ki in series [1] was determined as 63 nM. In “physchem”, this compound had a pKa of 8.03.
In the case of `C[C@@H]1C[C@H]1c1nc(NC2CC2)cc(N2CCCCCC2)n1`, the half-maximal inhibitory concentration (IC50) on Phosphodiesterase 4 was 2.5 µM. For the same compound, the Ki in series [1] stood at 398 nM.
On to `Cc1c(N[C@H]2C[C@@H]2C)nc(C2CC2)nc1N1CCCCCC1`, for which the IC50 against Phosphodiesterase 4 is 7.9 µM. Moreover, the Ki in series [1] turned out to be 7.9 nM.
The compound `Cc1c(NC2CC2)nc(C2CC2)nc1N1CCSCC1` came in with an IC50 against Phosphodiesterase 4 of 0.32 µM. In series [1], this compound displayed a Ki of 79 nM. The LogK-IAMex in series [2] was found to be 2.14. Besides, the pKa in “physchem” stood at 6.99.
`Cc1c(NC2CC2)nc(C2CC2)nc1N1CCC(C)CC1` showed a 50% inhibitory concentration (IC50) on Phosphodiesterase 4 of 0.63 µM. This compound showed an inhibitory constant (Ki) in series [1] of 16 nM. In series [2], this compound showed a LogK-IAMex of 2.8.
In the same order, the values of `C=C1CCN(c2nc(C3CC3)nc(NC3CC3)c2C)CC1` are 0.4 µM, 79 nM and 2.7.
Taken in the same sequence, the figures for `Cc1c(NC2CC2)nc(C2CC2)nc1N1CCc2ccccc2C1` were 0.5 µM, 316 nM and 2.97.
Taken in the same sequence, the figures for `Cc1c(NC2CC2)nc(C2CC2)nc1N1CC=CCC1` were 0.79 µM, 32 nM and 2.37.
Consider `Cc1c(NC2CC2)nc(C2CC2)nc1N1CCC(C)(C)CC1`, for which, on Phosphodiesterase 4, the IC50 amounted to 0.32 µM. The inhibitory constant (Ki) in series [1] amounted to 25 nM. In addition, the LogK-IAMex in series [2] came out at 3.02.
In the case of `C1CCCN(c2nc(C3CC3)nc3c2CCCN3)CC1`, the IC50 at Phosphodiesterase 4 is 0.5 µM. Further, in series [1], the Ki was 50 nM.
Taken in the same sequence, the figures for `Cc1c(NC2(C)CC2)nc(C2CC2)nc1N1CCCCCC1` were 6.3 µM and 10 nM.
As for `Fc1c(NC2CC2)nc(C2CC2)nc1N1CCSCC1`, the inhibition in series [3] is under 50%. The compound also had a half-maximal inhibitory concentration (IC50) against Phosphodiesterase 4 of 0.25 µM. In the series “physchem”, the pKa was 5.27.
Turning to `Cc1c(NC2CC2)nc(C2CC2)nc1N1CCCC1`, on Phosphodiesterase 4, the IC50 is 1.6 µM. This compound came in with an inhibition constant (Ki) in series [1] of 100 nM. For the same compound, the LogK-IAMex in series [2] came to 2.36.
Taken in the same sequence, the figures for `Cc1c(NCc2ccccc2)nc(C2CC2)nc1NC1CC1` were 4 µM, 200 nM and 2.36.
Taken in the same sequence, the figures for `CCC1CCN(c2nc(C3CC3)nc(NC3CC3)c2C)CC1` were 0.63 µM, 50 nM and 3.21.
For `Brc1c(NC2CC2)nc(C2CC2)nc1N1CCCCCC1`, the IC50 on Phosphodiesterase 4 turned out to be 0.63 µM. Also, the Ki in series [1] was determined as 316 nM. Further, the pKa in “physchem” was 6.21.
As to `Cc1c(NC2CC2)nc(C2CC2)nc1N(C)Cc1ccccc1`, the IC50 against Phosphodiesterase 4 was found to be 0.4 µM. Moreover, the affinity in series [1], expressed as Ki, was 251 nM. Further, the LogK-IAMex in series [2] is listed as 2.7.
Taken in the same sequence, the figures for `Cc1c(NC2CCCCC2)nc(C2CC2)nc1NC1CC1` were 2.5 µM, 316 nM and 2.71.
Taken in the same sequence, the figures for `Cc1c(NCc2c(F)cccc2F)nc(C2CC2)nc1NC1CC1` were 2 µM, 63 nM and 2.38.
